{"source": "paper PMC8704606", "about": "“The Artemiside-Artemisox-Artemisone-M1 Tetrad: Efficacies against Blood Stage P. falciparum Parasites, DMPK Properties, and the Case for Artemiside” (Pharmaceutics, 2021)", "key": {"[1]": {"experiment": "Cytotoxicity (LDH assay) against HepG2 cells", "type": "cell-based", "conditions": "human, HepG2 cells (hepatocellular carcinoma)", "procedure": "Cytotoxicity against mammalian hepatocellular carcinoma cells (HepG2 cells) was determined using the lactate dehydrogenase assay (LDH, Biovision Inc., Milpitas, CA, USA). […] Compound working solutions were prepared from 10 mM stock solutions (100% DMSO) in complete DMEM to a final DMSO (Sigma-Aldrich) conc. of <0.1% (vol/vol). […] Data analysis was performed using GraphPad Prism (version 6) software."}, "[2]": {"experiment": "Pharmacokinetics and metabolism after iv and po administration", "type": "in vivo", "conditions": "for half-life: mean ± SD, read-out: t½ (converted); for MRT last: read-out: MRT0-last; for AUC(0-t): up to 7 h", "procedure": "The plasma concentration-time profiles of the parent compounds and metabolites after administration iv and po to male C57/BL6 mice are presented in Figure 2, Figure 3 and Figure 4. Artemiside was quantifiable up to 24 h in all mice dosed iv and up to 7 h po (lower limit of quantitation LLOQ = 1.6 ng/mL or 0.004 μM) (Figure 2). […] For both artemiside and artemisox, the metabolite artemisone was quantifiable up to 3 h in both the po and iv groups (Figure 2 and Figure 3). Thereby it is confirmed that artemiside is rapidly converted via artemisox into artemisone. Artemisone itself was quantifiable up to three hours post dose (Figure 4). The mean circulating concentrations for the compounds and their metabolites are presented in Table S3a–f in the Supplementary Material 1. The metabolite M1 was also detected upon administration of artemiside, artemisox, and artemisone, but it was not quantified here; chromatograms indicating the presence of M1 are illustrated in Figure S3a–c in the Supplementary Material 1. In addition, the plasma concentration-time curves for artemiside and its metabolites artemisone and M1 following iv and po dosing in the same murine model are presented and discussed in detail elsewhere (cf. Figure 4 in reference).\nAll work was conducted with prior approval of the animal ethics committee of the University of Cape Town in accordance with the South African National Standards for the Care and Use of Animals for Scientific Purposes and guidelines from the South African Department of Health. The requirements and methods for the pharmacokinetics in vivo involving po and iv drug administration, sample extraction, analyses of samples by LC-MS/MS, and data analyses are described elsewhere. For the animal experiments and formulations, the compounds were dissolved in a 10:60:30 mixture of N,N-dimethylacetamide-polypropylene glycol-polyethylene glycol for intravenous dosing (iv) at 5 mg/kg. For the oral dose (po), compounds were individually dosed as a suspension in 0.5% (w/v) hydroxypropylmethylcellulose in water with 0.2% Tween80 at 50 mg/kg to male C57/BL6 mice (n = 3 for each group). For PK sampling, blood samples were collected at predetermined times (0.08, 0.25, 0.5, 1, 3, 5, 7, and 24 h) for both po and iv dosing via tail bleeding into heparinized tubes, centrifuged, and the plasma samples were stored at −80 °C until extraction. For preparation of samples, the frozen plasma samples were thawed and 15 μL was extracted by liquid–liquid extraction using a universal buffer (pH8) containing 10 ng/mL of the internal standard and ethyl acetate, and the extract was vortexed and centrifuged. Calibration standards and quality controls were extracted following the same procedure. Supernatants were dried down, reconstituted, and injected onto the column for LC-MS/MS analysis using an AB SCIEX 5500 QTRAP instrument coupled to an Agilent 1260 HPLC detection system as previously described."}, "[3]": {"conditions": "male, C57/BL6, mouse, plasma, iv 5 mg/kg, parent drug"}, "[4]": {"conditions": "male, C57/BL6, mouse, plasma, po 50 mg/kg, parent drug"}}, "note": "Like-named read-outs stand apart in the source and are kept apart here.", "data": [{"smiles": "C[C@H]1[C@H](N2CC[S+]([O-])CC2)O[C@@H]2O[C@@]3(C)CC[C@H]4[C@H](C)CC[C@@H]1[C@@]24OO3", "note": "[Artemisox 6, Artemisox]", "values": [{"measurement": "IC50 at 24 h", "setting": "[1]", "value": "> 50", "unit": "µM"}, {"measurement": "Mean iv circulating concentration", "setting": "[2]; 7 h after iv 5 mg/kg artemisox 6", "value": "blq"}, {"measurement": "Mean iv circulating concentration", "setting": "[2]; 24 h after iv 5 mg/kg artemisox 6", "value": "blq"}, {"measurement": "Mean po circulating concentration", "setting": "[2]; 24 h after po 50 mg/kg artemiside 5", "value": "blq"}, {"measurement": "Mean po circulating concentration", "setting": "[2]; 24 h after po 50 mg/kg artemisox 6", "value": "blq"}, {"measurement": "quantifiable/detectable in plasma up to", "setting": "[2]; iv group, parent drug, LLOQ 1.6 ng/mL or 0.004 μM for artemiside", "value": "up to 5 h"}, {"measurement": "concentration at 0.08 h", "setting": "[2]; male, C57/BL6, mouse, plasma, iv, 5 mg/kg, 0.08 h after iv 5 mg/kg artemiside 5, read-out: Mean iv circulating concentration", "value": 1930, "unit": "nM"}, {"measurement": "concentration at 0.08 h", "setting": "[2]; male, C57/BL6, mouse, plasma, iv, 5 mg/kg, 0.08 h after iv 5 mg/kg artemisox 6, read-out: Mean iv circulating concentration", "value": 1900, "unit": "nM"}, {"measurement": "concentration at 0.25 h", "setting": "[2]; male, C57/BL6, mouse, plasma, iv, 5 mg/kg, 0.25 h after iv 5 mg/kg artemiside 5, read-out: Mean iv circulating concentration", "value": 1820, "unit": "nM"}, {"measurement": "concentration at 0.25 h", "setting": "[2]; male, C57/BL6, mouse, plasma, iv, 5 mg/kg, 0.25 h after iv 5 mg/kg artemisox 6, read-out: Mean iv circulating concentration", "value": 2420, "unit": "nM"}, {"measurement": "concentration at 0.5 h", "setting": "[2]; male, C57/BL6, mouse, plasma, iv, 5 mg/kg, 0.5 h after iv 5 mg/kg artemiside 5, read-out: Mean iv circulating concentration", "value": 1380, "unit": "nM"}, {"measurement": "concentration at 0.5 h", "setting": "[2]; male, C57/BL6, mouse, plasma, iv, 5 mg/kg, 0.5 h after iv 5 mg/kg artemisox 6, read-out: Mean iv circulating concentration", "value": 1920, "unit": "nM"}, {"measurement": "concentration at 1 h", "setting": "[2]; male, C57/BL6, mouse, plasma, iv, 5 mg/kg, 1 h after iv 5 mg/kg artemiside 5, read-out: Mean iv circulating concentration", "value": 674, "unit": "nM"}, {"measurement": "concentration at 1 h", "setting": "[2]; male, C57/BL6, mouse, plasma, iv, 5 mg/kg, 1 h after iv 5 mg/kg artemisox 6, read-out: Mean iv circulating concentration", "value": 663, "unit": "nM"}, {"measurement": "concentration at 3 h", "setting": "[2]; male, C57/BL6, mouse, plasma, iv, 5 mg/kg, 3 h after iv 5 mg/kg artemiside 5, read-out: Mean iv circulating concentration", "value": 66, "unit": "nM"}, {"measurement": "concentration at 3 h", "setting": "[2]; male, C57/BL6, mouse, plasma, iv, 5 mg/kg, 3 h after iv 5 mg/kg artemisox 6, read-out: Mean iv circulating concentration", "value": 7, "unit": "nM"}, {"measurement": "concentration at 5 h", "setting": "[2]; male, C57/BL6, mouse, plasma, iv, 5 mg/kg, 5 h after iv 5 mg/kg artemiside 5, read-out: Mean iv circulating concentration", "value": 20, "unit": "nM"}, {"measurement": "concentration at 5 h", "setting": "[2]; male, C57/BL6, mouse, plasma, iv, 5 mg/kg, 5 h after iv 5 mg/kg artemisox 6, read-out: Mean iv circulating concentration", "value": 7, "unit": "nM"}, {"measurement": "concentration at 7 h", "setting": "[2]; male, C57/BL6, mouse, plasma, iv, 5 mg/kg, 7 h after iv 5 mg/kg artemiside 5, read-out: Mean iv circulating concentration", "value": 11, "unit": "nM"}, {"measurement": "concentration at 24 h", "setting": "[2]; male, C57/BL6, mouse, plasma, iv, 5 mg/kg, 24 h after iv 5 mg/kg artemiside 5, read-out: Mean iv circulating concentration", "value": 5, "unit": "nM"}, {"measurement": "half-life", "setting": "[2]; male, C57/BL6, mouse, plasma, iv, 5 mg/kg, iv 5 mg/kg, parent drug", "value": "25.8 ± 7.2", "unit": "min"}, {"measurement": "concentration at 0.08 h", "setting": "[2]; male, C57/BL6, mouse, plasma, po, 50 mg/kg, 0.08 h after po 50 mg/kg artemiside 5, read-out: Mean po circulating concentration", "value": 1860, "unit": "nM"}, {"measurement": "concentration at 0.08 h", "setting": "[2]; male, C57/BL6, mouse, plasma, po, 50 mg/kg, 0.08 h after po 50 mg/kg artemisox 6, read-out: Mean po circulating concentration", "value": 3040, "unit": "nM"}, {"measurement": "concentration at 0.25 h", "setting": "[2]; male, C57/BL6, mouse, plasma, po, 50 mg/kg, 0.25 h after po 50 mg/kg artemiside 5, read-out: Mean po circulating concentration", "value": 2150, "unit": "nM"}, {"measurement": "concentration at 0.25 h", "setting": "[2]; male, C57/BL6, mouse, plasma, po, 50 mg/kg, 0.25 h after po 50 mg/kg artemisox 6, read-out: Mean po circulating concentration", "value": 4210, "unit": "nM"}, {"measurement": "concentration at 0.5 h", "setting": "[2]; male, C57/BL6, mouse, plasma, po, 50 mg/kg, 0.5 h after po 50 mg/kg artemiside 5, read-out: Mean po circulating concentration", "value": 2510, "unit": "nM"}, {"measurement": "concentration at 0.5 h", "setting": "[2]; male, C57/BL6, mouse, plasma, po, 50 mg/kg, 0.5 h after po 50 mg/kg artemisox 6, read-out: Mean po circulating concentration", "value": 2150, "unit": "nM"}, {"measurement": "concentration at 1 h", "setting": "[2]; male, C57/BL6, mouse, plasma, po, 50 mg/kg, 1 h after po 50 mg/kg artemiside 5, read-out: Mean po circulating concentration", "value": 2030, "unit": "nM"}, {"measurement": "concentration at 1 h", "setting": "[2]; male, C57/BL6, mouse, plasma, po, 50 mg/kg, 1 h after po 50 mg/kg artemisox 6, read-out: Mean po circulating concentration", "value": 2010, "unit": "nM"}, {"measurement": "concentration at 3 h", "setting": "[2]; male, C57/BL6, mouse, plasma, po, 50 mg/kg, 3 h after po 50 mg/kg artemiside 5, read-out: Mean po circulating concentration", "value": 286, "unit": "nM"}, {"measurement": "concentration at 3 h", "setting": "[2]; male, C57/BL6, mouse, plasma, po, 50 mg/kg, 3 h after po 50 mg/kg artemisox 6, read-out: Mean po circulating concentration", "value": 13, "unit": "nM"}, {"measurement": "concentration at 5 h", "setting": "[2]; male, C57/BL6, mouse, plasma, po, 50 mg/kg, 5 h after po 50 mg/kg artemiside 5, read-out: Mean po circulating concentration", "value": 7, "unit": "nM"}, {"measurement": "concentration at 5 h", "setting": "[2]; male, C57/BL6, mouse, plasma, po, 50 mg/kg, 5 h after po 50 mg/kg artemisox 6, read-out: Mean po circulating concentration", "value": 5, "unit": "nM"}, {"measurement": "concentration at 7 h", "setting": "[2]; male, C57/BL6, mouse, plasma, po, 50 mg/kg, 7 h after po 50 mg/kg artemiside 5, read-out: Mean po circulating concentration", "value": 5, "unit": "nM"}, {"measurement": "concentration at 7 h", "setting": "[2]; male, C57/BL6, mouse, plasma, po, 50 mg/kg, 7 h after po 50 mg/kg artemisox 6, read-out: Mean po circulating concentration", "value": 4, "unit": "nM"}, {"measurement": "half-life", "setting": "[2]; male, C57/BL6, mouse, plasma, po, 50 mg/kg, po 50 mg/kg, parent drug", "value": "32.4 ± 6", "unit": "min"}, {"measurement": "clearance", "setting": "[2]; male, C57/BL6, mouse, plasma, iv 5 mg/kg", "value": 115, "unit": "mL/min/kg"}, {"measurement": "AUC(0-inf)", "setting": "[2]; [3]", "value": "2 ± 0.7", "unit": "µM·h"}, {"measurement": "MRT last", "setting": "[2]; male, C57/BL6, mouse, plasma, iv 5 mg/kg, parent drug, 0-last up to 7 h", "value": "34.2 ± 2.4", "unit": "min"}, {"measurement": "AUC(0-t)", "setting": "[2]; [3]", "value": "2 ± 0.7", "unit": "µM·h"}, {"measurement": "Vd", "setting": "[2]; male, C57/BL6, mouse, plasma, iv 5 mg/kg, read-out: Vss", "value": "4 ± 1.2", "unit": "L/kg"}, {"measurement": "bioavailability", "setting": "[2]; male, C57/BL6, mouse, plasma, po 50 mg/kg vs iv 5 mg/kg, read-out: F (bioavailability)", "value": "16 ± 2", "unit": "%"}, {"measurement": "Cmax", "setting": "[2]; [4]", "value": "4500 ± 2300", "unit": "nM"}, {"measurement": "MRT last", "setting": "[2]; [4]", "value": "41.4 ± 5.4", "unit": "min"}, {"measurement": "AUC(0-t)", "setting": "[2]; [4]", "value": "3.3 ± 1.4", "unit": "µM·h"}, {"measurement": "MAT (mean absorption time = MRTpo–MRTiv)", "setting": "[2]; po 50 mg/kg", "value": "7.8 ± 4.2", "unit": "min"}, {"measurement": "quantifiable/detectable in plasma up to", "setting": "[2]; po group, parent drug", "value": "up to 7 h"}]}]}
